Laboratory results reported in publication PMC7822874, “Chemoprotective antimalarials identified through quantitative high-throughput screening of Plasmodium blood and liver stage parasites” (Scientific Reports, 2021).
Like-named read-outs stand apart in the source and are kept apart here.

Tests used:
[1] = system: T1, Plasmodium falciparum Dd2-attB (parental line), asexual blood stages; assay: microbe, parasite or virus in culture; set-up: species or system P. falciparum Dd2-attB in human erythrocytes; SYBR Green-I proliferation assay, Dd2-attB parental line, asexual blood stages; details: Plasmodium falciparum, DD2, Erythrocyte, 72 h, read-out: Calculated / Average Log AC50 (M), mean of replicates, 72 h (converted)
T1 construct: Dd2-attB, the isogenic parental line

[2] = system: Plasmodium falciparum Dd2 asexual blood stage parasites; assay: microbe, parasite or virus in culture; set-up: species or system Plasmodium falciparum Dd2 in human erythrocytes; single determination (one 11-point concentration-response curve); details: Plasmodium falciparum, DD2, Erythrocyte, 72 h; read-out: AC50
[3] = system: luciferase-expressing P. berghei liver stage parasites in HepG2 cells; assay: Inhibition of liver-stage development assay (ILSDA), Method 2 (WRAIR, 96-well); format: cell-based, Plasmodium berghei; details: for Max Resp (signal direction of the dose response): Method 2, Decrease = decreasing P. berghei viability with dose, Increase = increasing signal, Inactive = no dose response; for AC50: Plasmodium berghei, HepG2, Method 2
in vitro [4] = details: human, HepG2-A16-CD81EGFP cells, uninfected
in vitro [5] = details: human, n = 1
[6] = system: P. berghei-ANKA-GFP-LucCON liver stage parasites in HepG2-A16-CD81EGFP cells; assay: P. berghei liver stage Pb-Luc assay, Method 1 (UCSD, 1536-well); format: cell-based, Plasmodium berghei; details: Plasmodium berghei; for activity at 1 µM / activity at 3 µM: 48 h; for AC50: Method 1
HepG2-A16-CD81EGFP cells = details: average of 2 wells; for HepG2 viability signal, 3 uM, repeat 2: nominal 3 uM (10 mM stock), 4.5 uM for 15 mM, 3.6 uM for 12 mM, 6 uM for 20 mM stock
[7] = 1 uM (compounds provided at 10 mM), average of 2 wells on a 1536 well plate, column 11, read-out: Pb-Luc (P. berghei liver stage), % of control, lower concentration, first repeat
[8] = 1 uM (compounds provided at 10 mM), average of 2 wells on a 1536 well plate, column 12, read-out: Pb-Luc (P. berghei liver stage), % of control, lower concentration, second repeat
[9] = 3 uM (compounds provided at 10 mM), average of 2 wells on a 1536 well plate, column 8, read-out: Pb-Luc (P. berghei liver stage), % of control, higher concentration, first repeat
[10] = 3 uM (compounds provided at 10 mM), average of 2 wells on a 1536 well plate, column 9, read-out: Pb-Luc (P. berghei liver stage), % of control, higher concentration, second repeat
[11] = nominal 1 uM (10 mM stock), […] for 15 mM, 1.2 uM for 12 mM, 2 uM for 20 mM stock
[12] = nominal 1 uM (10 mM stock), […] for 15 mM, 1.2 uM for 12 mM, 2 uM for 20 mM stock, average of 2 wells, 1536-well plate, repeat 1, read-out: Pb-Luc signal, 1 uM, repeat 1
[13] = nominal 1 uM (10 mM stock), […] for 15 mM, 1.2 uM for 12 mM, 2 uM for 20 mM stock, average of 2 wells, 1536-well plate, repeat 2, read-out: Pb-Luc signal, 1 uM, repeat 2
[14] = nominal 1 uM (10 mM stock), […] for 15 mM, 1.2 uM for 12 mM, 2 uM for 20 mM stock, average of 2 wells, 1536-well plate, repeat 3, read-out: Pb-Luc signal, 1 uM, repeat 3
[15] = nominal 3 uM (10 mM stock), 4.5 uM for 15 mM, 3.6 uM for 12 mM, 6 uM for 20 mM stock, average of 2 wells, 1536-well plate, repeat 1, read-out: Pb-Luc signal, 3 uM, repeat 1
[16] = nominal 3 uM (10 mM stock), 4.5 uM for 15 mM, 3.6 uM for 12 mM, 6 uM for 20 mM stock, average of 2 wells, 1536-well plate, repeat 2, read-out: Pb-Luc signal, 3 uM, repeat 2
[17] = nominal 3 uM (10 mM stock), 4.5 uM for 15 mM, 3.6 uM for 12 mM, 6 uM for 20 mM stock, average of 2 wells, 1536-well plate, repeat 3, read-out: Pb-Luc signal, 3 uM, repeat 3
[18] = Hill fit, 50% of maximum activity response, read-out: AC50
[19] = log10 of molar AC50 from Hill fit, read-out: Log AC50 (converted)

COC(=O)c1ccc(OC(C)=O)c2ncccc12 [NCGC00187997-01]
AC50 [1]: 1.93e-05 M

CC(C)=C(C#N)C(=O)N1CCCN(c2cc(NCCC(=O)O)nc(-c3ccccn3)n2)CC1 [NCGC00420877-01]
AC50 [1]: 1.59e-08 M

O=C(O)c1ccc(O)c2ncc(-c3cccc(N4CCOCC4)c3)cc12 [NCGC00241753-01]
AC50 [1]: 2.16e-05 M

O=C(O)c1ccc(O)c2ncc(-c3n[nH]nc3-c3ccccc3)cc12 [NCGC00241764-02]
AC50 [1]: 4.66e-06 M

Cc1cccc(CN2CCCn3nc(C)c(-c4ccnn4C(C)C)c32)n1 [NCGC00499722-01]
AC50 [1]: 1.65e-07 M

CCOC(=O)c1ccnc(-n2ncc(C(=O)OCC)c2-c2ccc(OC)cc2)c1 [NCGC00421879-01]
AC50 [1]: 1.22e-05 M

O=c1cc(CSc2ccc(Cl)cc2)nc(-c2ccccn2)[nH]1 [MLS001166297-01]
AC50 [2]: 5.96 µM | Max Resp (signal direction of the dose response) [3]: Inactive | viability at 48 h, 1 µM (in vitro [4]): 92% | viability at 48 h, 3 µM (in vitro [4]): 73% | CC50 at 48 h (in vitro [5]; HepG2 cells): 12.2 µM | activity at 1 µM [6, 7]: 17% | activity at 1 µM [6, 8]: 15% | activity at 3 µM [6, 9]: 8% | activity at 3 µM [6, 10]: 5%

Cc1nn2c(c1-c1ccccc1-c1ccccc1)N(CC1CC1)CCC2 [NCGC00420435-01]
AC50 [2]: 0.968 µM | Activity direction (Decrease / Inactive) ([3]; P. berghei liver stage, Method 2, dose response): Inactive | viability at 48 h, 1 µM (in vitro [4]): 102% | viability at 48 h, 3 µM (in vitro [4]): 53.6% | CC50 at 48 h (in vitro [5]; HepG2 cells): 22.2 µM | HepG2 viability signal, 1 uM, repeat 2 (HepG2-A16-CD81EGFP cells; [11]): 101.46% | HepG2 viability signal, 3 uM, repeat 2 (HepG2-A16-CD81EGFP cells): 45.92% | activity at 1 µM [6, 12]: 52.9% | activity at 1 µM [6, 13]: 51.5% | activity at 1 µM [6, 14]: 66.1% | activity at 3 µM [6, 15]: 2.42% | activity at 3 µM [6, 16]: 7.19% | activity at 3 µM [6, 17]: 5.92% | AC50 [6, 18]: 1.58 µM | AC50 [6, 19]: 1.58 µM

Cc1nc2ccc(NC(=O)c3cc(S(=O)(=O)N(C)c4ccccc4)ccc3Cl)cc2s1 [MLS000393823-01]
AC50 [2]: 0.841 µM | Max Resp (signal direction of the dose response) [3]: Decrease | AC50 [3, 18]: 0.501 µM | AC50 [3, 19]: 0.501 µM | CC50 at 48 h (in vitro [5]; HepG2 cells): 9.68 µM | HepG2 1uM growth rep1 (HepG2-A16-CD81EGFP cells; HepG2, 1 µM compound treatment (10 mM stocks), replicate 1, normalized): 61% | HepG2 1uM growth rep2 (HepG2-A16-CD81EGFP cells; HepG2, 1 µM compound treatment (10 mM stocks), replicate 2, normalized): 56% | HepG2 3uM growth rep1 (HepG2-A16-CD81EGFP cells; HepG2, 3 µM compound treatment (10 mM stocks), replicate 1, normalized): 59% | HepG2 3uM growth rep2 (HepG2-A16-CD81EGFP cells; HepG2, 3 µM compound treatment (10 mM stocks), replicate 2, normalized): 60% | activity at 1 µM ([6]; P. berghei liver stage, 1 µM compound treatment (10 mM stocks), replicate 1, normalized, average of 2 wells on a 1536 well plate, read-out: PbLuc 1uM growth rep1): 19% | activity at 1 µM ([6]; P. berghei liver stage, 1 µM compound treatment (10 mM stocks), replicate 2, normalized, average of 2 wells on a 1536 well plate, read-out: PbLuc 1uM growth rep2): 15% | activity at 3 µM ([6]; P. berghei liver stage, 3 µM compound treatment (10 mM stocks), replicate 1, normalized, average of 2 wells on a 1536 well plate, read-out: PbLuc 3uM growth rep1): 3.66% | activity at 3 µM ([6]; P. berghei liver stage, 3 µM compound treatment (10 mM stocks), replicate 2, normalized, average of 2 wells on a 1536 well plate, read-out: PbLuc 3uM growth rep2): 5.53%

O=C(NC(c1ccccc1)c1cc(Cl)c2cccnc2c1O)c1cccnc1 (centres unmarked) [MLS000573359-01]
AC50 [2]: 7.5 µM | Max Resp (signal direction of the dose response) [3]: Decrease | AC50 [3, 18]: 1.12 µM | AC50 [3, 19]: 1.12 µM | viability at 48 h, 1 µM (in vitro [4]): 119% | viability at 48 h, 3 µM (in vitro [4]): 66% | CC50 at 48 h (in vitro [5]; HepG2 cells): 13.7 µM

CC1=C[C@@H](CNCc2cccnc2)[C@H](C(C)C)C[C@H]1Cc1nnc(-c2ccc([N+](=O)[O-])cc2)o1 [NCGC00394797-01]
AC50 [2]: 5.31 µM | Max Resp (signal direction of the dose response) [3]: Decrease | AC50 [3, 18]: 0.562 µM | AC50 [3, 19]: 0.562 µM | CC50 at 48 h (in vitro [5]; hepg2): 24.3 µM | HepG2 viability signal, 1 uM, repeat 1 (HepG2-A16-CD81EGFP cells; nominal 1 uM (10 mM stock), […] for 15 mM, 1.2 uM for 12 mM, 2 uM for 20 mM stock, repeat 1): 104.31% | HepG2 viability signal, 1 uM, repeat 2 (HepG2-A16-CD81EGFP cells; [11]): 102.23% | HepG2 viability signal, 3 uM, repeat 2 (HepG2-A16-CD81EGFP cells): 86.98% | activity at 1 µM [6, 12]: 72% | activity at 1 µM [6, 13]: 75% | activity at 1 µM [6, 14]: 71.6% | activity at 3 µM [6, 15]: 23.8% | activity at 3 µM [6, 16]: 19.3% | activity at 3 µM [6, 17]: 23.7% | AC50 [6, 18]: 1.58 µM | AC50 [6, 19]: 1.58 µM

O=C(Nc1ccccc1O)c1ccc(NC(=O)C2CC2)cc1 [MLS001162082-01]
AC50 [2]: 4.73 µM | Max Resp (signal direction of the dose response) [3]: Decrease | AC50 [3, 18]: 2.24 µM | AC50 [3, 19]: 2.24 µM | viability at 48 h, 1 µM (in vitro [4]): 114% | viability at 48 h, 3 µM (in vitro [4]): 108% | CC50 at 48 h (in vitro [5]; HepG2 cells): 10.9 µM | activity at 1 µM [6, 7]: 40% | activity at 1 µM [6, 8]: 37% | activity at 3 µM [6, 9]: 10% | activity at 3 µM [6, 10]: 10%
